{"source": "paper PMC9829398", "about": "(Plant Biotechnology Journal, 2022)", "key": {"[1]": {"tested_on": "Meloidogyne incognita", "experiment": "Rice root-knot nematode disease, preventive root treatment", "assay_type": "in vivo", "details": "roots pretreated twice with 3 mL of 5 μM, 800 pre-J2s"}, "[2]": {"tested_on": "Ralstonia solanacearum", "assay_type": "in vivo, tomato", "details": "roots pretreated twice with 3 mL of 5 μM"}, "[3]": {"tested_on": "FRK1", "details": "5 μM for 24 h, confocal microscopy"}, "[4]": {"tested_on": "Ralstonia solanacearum", "assay_type": "in vivo, tobacco", "details": "5 μM irrigated twice two days after inoculation"}, "[5]": {"tested_on": "tobacco roots", "experiment": "RNA-seq of tobacco roots (DEGs, GO and KEGG classification and enrichment)", "assay_type": "in vivo"}, "[6]": {"details": "KEGG ko00040 Pentose and glucuronate interconversions"}, "[7]": {"details": "KEGG ko00052 Galactose metabolism"}, "[8]": {"details": "KEGG ko00062 Fatty acid elongation"}, "[9]": {"details": "KEGG ko00071 Fatty acid degradation"}, "[10]": {"details": "KEGG ko00073 Cutin, suberine and wax biosynthesis"}, "[11]": {"details": "KEGG ko00100 Steroid biosynthesis"}, "[12]": {"details": "KEGG ko00250 Alanine, aspartate and glutamate metabolism"}, "[13]": {"details": "KEGG ko00270 Cysteine and methionine metabolism"}, "[14]": {"details": "KEGG ko00290 Valine, leucine and isoleucine biosynthesis"}, "[15]": {"details": "KEGG ko00330 Arginine and proline metabolism"}, "[16]": {"details": "KEGG ko00350 Tyrosine metabolism"}, "[17]": {"details": "KEGG ko00360 Phenylalanine metabolism"}, "[18]": {"details": "KEGG ko00410 beta-Alanine metabolism"}, "[19]": {"details": "KEGG ko00430 Taurine and hypotaurine metabolism"}, "[20]": {"details": "KEGG ko00460 Cyanoamino acid metabolism"}, "[21]": {"details": "KEGG ko00480 Glutathione metabolism"}, "[22]": {"details": "KEGG ko00500 Starch and sucrose metabolism"}, "[23]": {"details": "KEGG ko00511 Other glycan degradation"}, "[24]": {"details": "KEGG ko00520 Amino sugar and nucleotide sugar metabolism"}, "[25]": {"details": "KEGG ko00531 Glycosaminoglycan degradation"}, "[26]": {"details": "KEGG ko00561 Glycerolipid metabolism"}, "[27]": {"details": "KEGG ko00564 Glycerophospholipid metabolism"}, "[28]": {"details": "KEGG ko00590 Arachidonic acid metabolism"}, "[29]": {"details": "KEGG ko00591 Linoleic acid metabolism"}, "[30]": {"details": "KEGG ko00592 alpha-Linolenic acid metabolism"}, "[31]": {"details": "KEGG ko00603 Glycosphingolipid biosynthesis - globo series"}, "[32]": {"details": "KEGG ko00604 Glycosphingolipid biosynthesis - ganglio series"}, "[33]": {"details": "KEGG ko00650 Butanoate metabolism"}, "[34]": {"details": "KEGG ko00730 Thiamine metabolism"}, "[35]": {"details": "KEGG ko00760 Nicotinate and nicotinamide metabolism"}, "[36]": {"details": "KEGG ko00770 Pantothenate and CoA biosynthesis"}, "[37]": {"details": "KEGG ko00904 Diterpenoid biosynthesis"}, "[38]": {"details": "KEGG ko00905 Brassinosteroid biosynthesis"}, "[39]": {"details": "KEGG ko00906 Carotenoid biosynthesis"}, "[40]": {"details": "KEGG ko00908 Zeatin biosynthesis"}, "[41]": {"details": "KEGG ko00909 Sesquiterpenoid and triterpenoid biosynthesis"}, "[42]": {"details": "KEGG ko00910 Nitrogen metabolism"}, "[43]": {"details": "KEGG ko00940 Phenylpropanoid biosynthesis"}, "[44]": {"details": "KEGG ko00941 Flavonoid biosynthesis"}}, "note": "Entries after “also recorded” stand apart in the source; their conditions may differ."}
{"molecule": "O=C(O)c1cc(N(Cc2ccccc2O)Cc2cc(O)ccc2O)ccc1O", "note": "[Lavendustin A]", "values": [{"measurement": "Control of rice root-knot nematode disease", "setting": "[1]", "value": "better preventive effects than staurosporine; also recorded: alleviated soil‐borne diseases"}, {"measurement": "Control of tomato bacterial wilt", "setting": "[2]", "value": "best control effect; also recorded: alleviated soil‐borne diseases"}, {"measurement": "Expression of FRK1 in roots", "setting": "[3]", "value": "did not affect the expression levels"}, {"measurement": "Effect on established tobacco bacterial wilt", "setting": "[4]", "value": "could not completely prevent the occurrence of the diseases or cure already diseased plants"}, {"measurement": "Enrichment_score", "setting": "[5]; [6]", "value": 1.762}, {"measurement": "ListHits", "setting": "[5]; [6]", "value": 11}, {"measurement": "Enrichment_score", "setting": "[5]; [7]", "value": 3.118}, {"measurement": "ListHits", "setting": "[5]; [7]", "value": 9}, {"measurement": "Enrichment_score", "setting": "[5]; [8]", "value": 4.058}, {"measurement": "ListHits", "setting": "[5]; [8]", "value": 8}, {"measurement": "Enrichment_score", "setting": "[5]; [9]", "value": 0.9908}, {"measurement": "ListHits", "setting": "[5]; [9]", "value": 2}, {"measurement": "Enrichment_score", "setting": "[5]; [10]", "value": 6.683}, {"measurement": "ListHits", "setting": "[5]; [10]", "value": 16}, {"measurement": "Enrichment_score", "setting": "[5]; [11]", "value": 3.5933}, {"measurement": "ListHits", "setting": "[5]; [11]", "value": 7}, {"measurement": "Enrichment_score", "setting": "[5]; [12]", "value": 2.602}, {"measurement": "ListHits", "setting": "[5]; [12]", "value": 8}, {"measurement": "Enrichment_score", "setting": "[5]; [13]", "value": 1.358}, {"measurement": "ListHits", "setting": "[5]; [13]", "value": 8}, {"measurement": "Enrichment_score", "setting": "[5]; [14]", "value": 1.495}, {"measurement": "ListHits", "setting": "[5]; [14]", "value": 2}, {"measurement": "Enrichment_score", "setting": "[5]; [15]", "value": 2.996}, {"measurement": "ListHits", "setting": "[5]; [15]", "value": 9}, {"measurement": "Enrichment_score", "setting": "[5]; [16]", "value": 1.721}, {"measurement": "ListHits", "setting": "[5]; [16]", "value": 4}, {"measurement": "Enrichment_score", "setting": "[5]; [17]", "value": 3.551}, {"measurement": "ListHits", "setting": "[5]; [17]", "value": 8}, {"measurement": "Enrichment_score", "setting": "[5]; [18]", "value": 1.826}, {"measurement": "ListHits", "setting": "[5]; [18]", "value": 6}, {"measurement": "Enrichment_score", "setting": "[5]; [19]", "value": 1.704}, {"measurement": "ListHits", "setting": "[5]; [19]", "value": 1}, {"measurement": "Enrichment_score", "setting": "[5]; [20]", "value": 2.209}, {"measurement": "ListHits", "setting": "[5]; [20]", "value": 7}, {"measurement": "Enrichment_score", "setting": "[5]; [21]", "value": 1.785}, {"measurement": "ListHits", "setting": "[5]; [21]", "value": 8}, {"measurement": "Enrichment_score", "setting": "[5]; [22]", "value": 2.489}, {"measurement": "ListHits", "setting": "[5]; [22]", "value": 34}, {"measurement": "Enrichment_score", "setting": "[5]; [23]", "value": 1.253}, {"measurement": "ListHits", "setting": "[5]; [23]", "value": 1}, {"measurement": "Enrichment_score", "setting": "[5]; [24]", "value": 1.791}, {"measurement": "ListHits", "setting": "[5]; [24]", "value": 14}, {"measurement": "Enrichment_score", "setting": "[5]; [25]", "value": 1.152}, {"measurement": "ListHits", "setting": "[5]; [25]", "value": 1}, {"measurement": "Enrichment_score", "setting": "[5]; [26]", "value": 2.272}, {"measurement": "ListHits", "setting": "[5]; [26]", "value": 8}, {"measurement": "Enrichment_score", "setting": "[5]; [27]", "value": 1.826}, {"measurement": "ListHits", "setting": "[5]; [27]", "value": 9}, {"measurement": "Enrichment_score", "setting": "[5]; [28]", "value": 1.2911}, {"measurement": "ListHits", "setting": "[5]; [28]", "value": 1}, {"measurement": "Enrichment_score", "setting": "[5]; [29]", "value": 6.087}, {"measurement": "ListHits", "setting": "[5]; [29]", "value": 6}, {"measurement": "Enrichment_score", "setting": "[5]; [30]", "value": 4.111}, {"measurement": "ListHits", "setting": "[5]; [30]", "value": 11}, {"measurement": "Enrichment_score", "setting": "[5]; [31]", "value": 4.485}, {"measurement": "ListHits", "setting": "[5]; [31]", "value": 2}, {"measurement": "Enrichment_score", "setting": "[5]; [32]", "value": 4.734}, {"measurement": "ListHits", "setting": "[5]; [32]", "value": 1}, {"measurement": "Enrichment_score", "setting": "[5]; [33]", "value": 1.671}, {"measurement": "ListHits", "setting": "[5]; [33]", "value": 2}, {"measurement": "Enrichment_score", "setting": "[5]; [34]", "value": 1.522}, {"measurement": "ListHits", "setting": "[5]; [34]", "value": 1}, {"measurement": "Enrichment_score", "setting": "[5]; [35]", "value": 4.438}, {"measurement": "ListHits", "setting": "[5]; [35]", "value": 5}, {"measurement": "Enrichment_score", "setting": "[5]; [36]", "value": 1.397}, {"measurement": "ListHits", "setting": "[5]; [36]", "value": 2}, {"measurement": "Enrichment_score", "setting": "[5]; [37]", "value": 1.0025}, {"measurement": "ListHits", "setting": "[5]; [37]", "value": 2}, {"measurement": "Enrichment_score", "setting": "[5]; [38]", "value": 2.84}, {"measurement": "ListHits", "setting": "[5]; [38]", "value": 2}, {"measurement": "Enrichment_score", "setting": "[5]; [39]", "value": 1.079}, {"measurement": "ListHits", "setting": "[5]; [39]", "value": 2}, {"measurement": "Enrichment_score", "setting": "[5]; [40]", "value": 1.973}, {"measurement": "ListHits", "setting": "[5]; [40]", "value": 5}, {"measurement": "Enrichment_score", "setting": "[5]; [41]", "value": 1.739}, {"measurement": "ListHits", "setting": "[5]; [41]", "value": 2}, {"measurement": "Enrichment_score", "setting": "[5]; [42]", "value": 6.015}, {"measurement": "ListHits", "setting": "[5]; [42]", "value": 12}, {"measurement": "Enrichment_score", "setting": "[5]; [43]", "value": 5.314}, {"measurement": "ListHits", "setting": "[5]; [43]", "value": 58}, {"measurement": "Enrichment_score", "setting": "[5]; [44]", "value": 1.173}, {"measurement": "ListHits", "setting": "[5]; [44]", "value": 3}]}
